According to patent US20210386737A1, “DIHYDROIMIDAZOPYRAZINONE COMPOUND, COMPOSITION INCLUDING SAME, AND USE THEREOF” (priority 2018, published 2021):

How the values were obtained:
ERK2 kinase = target: T1, ERK2 kinase (Homo sapiens, UniProt P28482); experiment: ERK2 kinase inhibition (ADP-Glo); format: biochemical; settings: ADP-Glo kit, 20 minutes reaction at room temperature
T1 construct: purchased Promega V1961
Description: ERK2 kinase (Promega, catalog No. V1961), RET (V804M), Active (Signalchem, catalog No, R02-12GG), ADP-Glo™ kit (Promega, catalog No. V9102), GDC-0994 (MCE, catalog No. HY-15947), ATP (Promega, catalog No. V910B), DMSO (Sigma, catalog No. D8418), DTT (Invitrogen, catalog No. P2325), 384-well plate (Greiner, catalog No. 784075), polypropylene 384-well plate (Labcyte, catalog No. P-05525-BC), polypropylene 96-well plate (Nunc, catalog No. 249944), plate shaker (Thermo, catalog No. 4625-1 CECN/THZ Q), centrifuge (Eppendorf, catalog No. 5810R), multilabel ELISA reader Envision 2104 multi-label Reader (PerkinElmer, catalog No. 74785), Echo acoustic dispenser (Labcyte, catalog No. 550).
Compound formulation: The test compounds were dissolved in DMSO to prepare a 10 mM stock solution. Then, the stock solution was diluted 10 times with a 3-fold gradient. When addition, 10-fold dilution was made with buffer solution.
ERK2 kinase assay: In 1× kinase buffer solution, ERK2 kinase was mixed with pre-formulated and diluted compounds of different concentrations for 10 minutes in duplicate for each concentration. The corresponding substrate and ATP were added thereto, and reacted at room temperature for 20 minutes (both a negative and a positive control were set, wherein the negative is blank control, and the positive control is GDC-0994). Detection reagent was added after the reaction is complete (reagent in ADP-Glo™ kit), and after 40 minutes of incubation at room temperature, Envision 2104 multi-label Reader ELISA reader was used for detection of enzyme activities under the presence of compounds of the present disclosure with different concentrations, and the inhibitory activities of different concentrations of compounds on enzyme activity were calculated. GraphPad Prism 6.0 software was used for data analysis, nonlinear curve regression was used to fit the data to get the dose-response curve, thereby IC50 values were calculated.

[1] = tested on: phospho-p90RSK in A375 cell line; experiment: A375 cell assay (phospho-p90RSK sandwich ELISA); format: cell-based; settings: Homo sapiens, A-375; inhibition of phospho-p90RSK, A375 cells (BRAF V600E), 4 hours incubation
Method: The cells in the logarithmic growth phase were taken and the trypan blue exclusion method was used to detect the cell viability to ensure that the cell viability is above 90%. The cell concentration was adjusted, and 150 μL cell suspension was added to a 96-well plate, which was incubated at 37° C., 5% CO2 for 16 h. The maximum concentration of the drug to be tested was 10 μM, which was diluted into 10 concentrations with a 3-fold gradient dilution, 50 μL drug solution was added to each well of the 96-well plate in duplicate, and incubation was continued for 4 hours. After removing the medium, 0.2 ml cell lysis solution and […] were added to each well, which was incubated on ice for 30 mm, and centrifuged for 10 min at 4° C. to afford cell lysis solution. PathScan®Phospho-p90RSK (Thr359) Sandwich ELISA Kit (CST, catalog No. 91959C) was used for detecting the inhibitory rate of the compounds of the present disclosure on phospho-p90RSK, to each well 100 μL cell lysis solution was added, and incubated at 4° C. overnight. The plate was washed, added with 100 μL reconstituted Detection Antibody, and incubated at 37° C. for 1 h. The plate was washed, added with 100 μL reconstituted HRP-Linked secondary antibody, and incubated at 37° C. for 30 min. The plate was washed, added with 100 μL TMB Substrate, and after incubating at 25° C. for 30 min, 100 μL STOP Solution was added, and EnVision (Perkin Elmer 2104) was used to detect fluorescence value, and inhibitory rates under the effect of different concentrations of compounds were calculated. The calculation of IC50 was carried out using Prism Graphpad 8.0, software.
Phospho-p90RSK cell assay was conducted in A375 cell line, which has human malignant melanoma with BRAF V600E mutation that upregulates the MAPK pathway, and therefore has increased endogenous levels of phospho-ERK and phospho-p90RSK.

T1 sequence (P28482 whole entry): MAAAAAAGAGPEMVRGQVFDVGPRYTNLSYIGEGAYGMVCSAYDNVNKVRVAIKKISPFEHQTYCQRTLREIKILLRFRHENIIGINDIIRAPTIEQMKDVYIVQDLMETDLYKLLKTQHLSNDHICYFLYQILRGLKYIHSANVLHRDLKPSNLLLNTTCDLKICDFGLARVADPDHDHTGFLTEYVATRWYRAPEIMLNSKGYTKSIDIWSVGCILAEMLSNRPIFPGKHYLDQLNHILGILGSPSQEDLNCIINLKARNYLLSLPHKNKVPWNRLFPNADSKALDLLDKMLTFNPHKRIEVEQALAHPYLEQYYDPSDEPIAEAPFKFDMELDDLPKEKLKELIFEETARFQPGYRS

IC50 (ERK2 kinase) | IC50 [1] | SMILES
 | 0.0301 µM | [2H]C([2H])([2H])n1nccc1Nc1ncc(C)c(-c2cn3c(n2)C(=O)N(Cc2ccc(F)c(F)c2)[C@@H](COC)C3)n1 [Compound I-1, (R)-7-(3,4-difluorobenzyl)-6-(methoxymethyl)-2-(5-methyl-2-((1-(methyl-d3)-1H-pyrazol-5-yl)amino)pyrimidin-4-yl)-6,7-dihydroimidazo[1,2-a]pyrazin-8(5H)-one]
0.00309 µM | 0.0249 µM | [2H]C([2H])([2H])OC[C@H]1Cn2cc(-c3nc(Nc4ccnn4C)ncc3C)nc2C(=O)N1Cc1ccc(F)c(F)c1 [Compound I-4-1, (R)-7-(3,4-difluorobenzyl)-6-((methoxy-d3)-methyl)-2-(5-methyl-2-((1-methyl-1H-pyrazol-5-yl)amino)pyrimidin-4-yl)-6,7-dihydroimidazo[1,2-a]pyrazin-8(5H)-one]
0.00275 µM | 0.0296 µM | [2H]C([2H])([2H])OC[C@H]1Cn2cc(-c3nc(Nc4ccnn4C([2H])([2H])[2H])ncc3C)nc2C(=O)N1Cc1ccc(F)c(F)c1 [Compound I-5-1, (R)-7-(3,4-difluorobenzyl)-6-((methoxy-d3)-methyl)-2-(5-methyl-2-((1-(methyl-d3)-1H-pyrazol-5-yl)amino)pyrimidin-4-yl)-6,7-dihydroimidazo[1,2-a]pyrazin-8(5H)-one]

Second part, the compound before the results:

SMILES | IC50 (ERK2 kinase) | IC50 [1]
COC[C@H]1Cn2cc(-c3nc(Nc4ccnn4C)ncc3C)nc2C(=O)N1Cc1ccc(F)c(F)c1 [AZD0364, (R)-7-(3,4-difluorobenzyl)-6-(methoxymethyl)-2-(5-methyl-2-((1-methyl-1H-pyrazol-5-yl)amino)pyrimidin-4-yl)-6,7-dihydroimidazo[1,2-a]pyrazin-8(5H)-one, reference compound] | 0.00401 µM | 0.0387 µM
[2H]C([2H])(c1ccc(F)c(F)c1)N1C(=O)c2nc(-c3nc(Nc4ccnn4C([2H])([2H])[2H])ncc3C)cn2C[C@@H]1COC [Compound I-3, (R)-7-((3,4-difluorophenyl)methyl-d2)-6-(methoxymethyl)-2-(5-methyl-2-((1-(methyl-d3)-1H-pyrazol-5-yl)amino)pyrimidin-4-yl)-6,7-dihydroimidazo[1,2-a]pyrazin-8(5H)-one] | 0.00331 µM | 0.0346 µM
